Assay results taken from patent US20220089609A1, “SUBSTITUTED QUINAZOLINONE DERIVATIVES AND THEIR USE AS POSITIVE ALLOSTERIC MODULATORS OF MGLUR4” (DOMAIN THERAPEUTICS, priority 2018, published 2022).

Key:
human mGluR4 (hmGluR4) = target: T1, human mGluR4 (hmGluR4) (Homo sapiens, UniProt Q14833); assay: Calcium assay EC50 determination, positive allosteric modulator activity on hmGluR4 transiently over-expressed in HEK-293 cells; format: cell-based; conditions: PAM mode with EC20 glutamate; hmGluR4 in HEK-293 cells; intracellular calcium (Fluo4AM); read-out: mGluR4 positive allosteric modulator activity, half maximal effective concentration (EC50)
T1 construct: expressed in transfected cells; host or cells: HEK-293 cells, transient co-transfection by electroporation
T1 sequence (Q14833 33-912): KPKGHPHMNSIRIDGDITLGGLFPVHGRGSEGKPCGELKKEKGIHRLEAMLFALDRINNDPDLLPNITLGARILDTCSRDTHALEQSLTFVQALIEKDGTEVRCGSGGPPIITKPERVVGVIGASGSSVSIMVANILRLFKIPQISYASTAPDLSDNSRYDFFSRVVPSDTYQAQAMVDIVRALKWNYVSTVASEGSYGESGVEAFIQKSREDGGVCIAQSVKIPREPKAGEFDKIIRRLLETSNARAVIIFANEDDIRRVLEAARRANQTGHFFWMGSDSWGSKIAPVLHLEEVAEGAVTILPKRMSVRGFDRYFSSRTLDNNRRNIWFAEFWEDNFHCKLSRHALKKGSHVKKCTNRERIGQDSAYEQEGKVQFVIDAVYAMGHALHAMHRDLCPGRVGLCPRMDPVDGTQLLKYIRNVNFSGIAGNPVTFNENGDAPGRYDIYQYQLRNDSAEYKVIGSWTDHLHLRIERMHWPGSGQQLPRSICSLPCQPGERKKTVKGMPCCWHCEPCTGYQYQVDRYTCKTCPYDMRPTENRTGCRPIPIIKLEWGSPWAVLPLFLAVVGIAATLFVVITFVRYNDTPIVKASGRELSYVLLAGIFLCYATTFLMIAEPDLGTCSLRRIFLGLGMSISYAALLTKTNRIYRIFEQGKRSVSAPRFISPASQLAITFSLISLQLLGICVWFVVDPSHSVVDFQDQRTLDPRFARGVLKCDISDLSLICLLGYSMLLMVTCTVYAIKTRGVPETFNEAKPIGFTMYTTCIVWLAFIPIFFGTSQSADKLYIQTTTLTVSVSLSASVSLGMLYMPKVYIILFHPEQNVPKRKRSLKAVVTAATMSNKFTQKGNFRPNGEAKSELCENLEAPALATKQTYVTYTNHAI
Method in brief: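 HEK-293 cells transiently co-transfected with hmGluR4, chimeric G protein and glutamate transporters; Fluo4AM calcium read (ex 485/em 525 nm) on FLIPR Tetra. Compound alone 10 min for agonism, then EC20 glutamate with 3 min recording for PAM activity, versus buffer or EC20 glutamate basal.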

Structure (SMILES) | EC50 (human mGluR4 (hmGluR4)) | melting point
Cc1cc(CN2CCOCC2)cc2c(=O)[nH]c(-c3cc4cccn4cn3)nc12.Cl [Compound 125, 8-Methyl-6-(morpholinomethyl)-2-pyrrolo[1,2-c]pyrimidin-3-yl-3H-quinazolin-4-one hydrochloride] | ≤ 100 nM | > 250 °C
Cc1cc(CC(=O)N2CCOCC2)cc2c(=O)[nH]c(-c3cc4ccsc4cn3)nc12 [Compound 127, 8-Methyl-6-(2-morpholino-2-oxo-ethyl)-2-thieno[2,3-c]pyridin-5-yl-3H-quinazolin-4-one] | 100 to 1000 nM | > 250 °C
Cc1cc(CCN2CCCCC2)cc2c(=O)[nH]c(-c3cnc4sccc4c3)nc12.Cl [Compound 128, 8-Methyl-6-(2-piperidin-1-yl-ethyl)-2-thieno[2,3-b]pyridin-5-yl-3H-quinazolin-4-one hydrochloride] | 1000 to 10000 nM | > 250 °C
Cc1cc(OC2CCC(=O)N(C)C2)cc2c(=O)[nH]c(-c3cc4sccc4cn3)nc12 (stereo not shown) [Compound 129, 8-Methyl-6-(1-methyl-6-oxo-piperidin-3-yloxy)-2-thieno[3,2-c]pyridin-6-yl-3H-quinazolin-4-one] | ≤ 100 nM | 90 to 110 °C
Cc1cc(OCC2CCN(C)C(=O)C2)cc2c(=O)[nH]c(-c3cc4ccsc4cn3)nc12 (stereo not shown) [Compound 130, 8-Methyl-6-(1-methyl-2-oxo-piperidin-4-ylmethoxy)-2-thieno[2,3-c]pyridin-5-yl-3H-quinazolin-4-one] | ≤ 100 nM | > 250 °C
Cc1cc(CN2CCCCC2)cc2c(=O)[nH]c(-c3cc4ccsc4cn3)nc12.Cl [Compound 131, 8-Methyl-6-(1-piperidylmethyl)-2-thieno[2,3-c]pyridin-5-yl-3H-quinazolin-4-one hydrochloride] | 100 to 1000 nM | 233 to 240 °C
Cc1cc(CN2CCCC2)cc2c(=O)[nH]c(-c3cc4ccsc4cn3)nc12.Cl [Compound 133, 8-Methyl-6-(pyrrolidin-1-ylmethyl)-2-thieno[2,3-c]pyridin-5-yl-3H-quinazolin-4-one hydrochloride] | 1000 to 10000 nM | > 250 °C
Cc1cc(CC(=O)N2CCOCC2)cc2c(=O)[nH]c(-c3cc4cccn4cn3)nc12 [Compound 134, 8-Methyl-6-(2-morpholino-2-oxo-ethyl)-2-pyrrolo[1,2-c]pyrimidin-3-yl-3H-quinazolin-4-one] | ≤ 100 nM | 254 to 256 °C
Cc1cc(OC2CCC(=O)N(C)C2)cc2c(=O)[nH]c(-c3cc(C(F)(F)F)ccn3)nc12 (stereo not shown) [Compound 136, 8-Methyl-6-(1-methyl-6-oxo-piperidin-3-yloxy)-2-(4-trifluoromethyl-pyridin-2-yl)-3H-quinazolin-4-one] | ≤ 100 nM | > 250 °C
Cc1cc(CN2CCSCC2)cc2c(=O)[nH]c(-c3cc4ccsc4cn3)nc12.Cl [Compound 137, 8-Methyl-2-thieno[2,3-c]pyridin-5-yl-6-(thiomorpholinomethyl)-3H-quinazolin-4-one hydrochloride] | ≤ 100 nM | > 250 °C
Cc1cc(CC(=O)N2CCCOCC2)cc2c(=O)[nH]c(-c3cc4ccsc4cn3)nc12 [Compound 138, 8-Methyl-6-[2-(1,4-oxazepan-4-yl)-2-oxo-ethyl]-2-thieno[2,3-c]pyridin-5-yl-3H-quinazolin-4-one] | ≤ 100 nM | 215 to 220 °C
Cc1cc(CN2CCCC2)cc2c(=O)[nH]c(-c3cc4sccc4cn3)nc12.Cl [Compound 139, 8-Methyl-6-(pyrrolidin-1-ylmethyl)-2-thieno[3,2-c]pyridin-6-yl-3H-quinazolin-4-one hydrochloride] | 1000 to 10000 nM | > 250 °C
Cc1cc(O[C@H]2CCN(C(=O)OCc3ccccc3)C2)cc2c(=O)[nH]c(-c3cc4sccc4cn3)nc12 [Compound 141, Benzyl (3S)-3-[(8-methyl-4-oxo-2-thieno[3,2-c]pyridin-6-yl-3H-quinazolin-6-yl)oxy]pyrrolidine-1-carboxylate] | 100 to 1000 nM | 224 to 227 °C
Cc1cc(CCN2CCN(C)C(=O)C2)cc2c(=O)[nH]c(-c3cc4ccsc4cn3)nc12.Cl [Compound 142, 8-Methyl-6-[2-(4-methyl-3-oxo-piperazin-1-yl)ethyl]-2-thieno[2,3-c]pyridin-5-yl-3H-quinazolin-4-one hydrochloride] | 100 to 1000 nM | > 250 °C
Cc1cc(CCN2CCN(C)C(=O)C2)cc2c(=O)[nH]c(-c3cc(C(F)(F)F)ccn3)nc12.Cl [Compound 144, 8-Methyl-6-[2-(4-methyl-3-oxo-piperazin-1-yl)ethyl]-2-[4-(trifluoromethyl)-2-pyridyl]-3H-quinazolin-4-one hydrochloride] | 100 to 1000 nM | 148 to 150 °C
Cc1cc(CCN2CC3(COC3)C2)cc2c(=O)[nH]c(-c3cc4ccsc4cn3)nc12 [Compound 145, 8-Methyl-6-[2-(2-oxa-6-azaspiro[3.3]heptan-6-yl)ethyl]-2-thieno[2,3-c]pyridin-5-yl-3H-quinazolin-4-one] | 1000 to 10000 nM | 220 to 225 °C
Cc1cc(CCN2CC3(COC3)C2)cc2c(=O)[nH]c(-c3cc4sccc4cn3)nc12 [Compound 146, 8-Methyl-6-[2-(2-oxa-6-azaspiro[3.3]heptan-6-yl)ethyl]-2-thieno[3,2-c]pyridin-6-yl-3H-quinazolin-4-one] | 100 to 1000 nM | 160 to 200 °C
COCCN(C)CCc1cc(C)c2nc(-c3cc4sccc4cn3)[nH]c(=O)c2c1.Cl [Compound 148, 6-(2-((2-Methoxyethyl)(methyl)amino)ethyl)-8-methyl-2-(thieno[3,2-c]pyridin-6-yl)quinazolin-4(3H)-one hydrochloride] | 1000 to 10000 nM | 149 to 162 °C
Cc1cc(CCN2CCS(=O)(=O)CC2)cc2c(=O)[nH]c(-c3cc4sccc4cn3)nc12 [Compound 149, 6-(2-(1,1-Dioxidothiomorpholino)ethyl)-8-methyl-2-(thieno[3,2-c]pyridin-6-yl)quinazolin-4(3H)-one] | ≤ 100 nM | 200 to 212 °C
Cc1cc(CN2CCS(=O)(=O)CC2)cc2c(=O)[nH]c(-c3cc4sccc4cn3)nc12 [Compound 150, 6-[(1,1-Dioxo-1,4-thiazinan-4-yl)methyl]-8-methyl-2-thieno[3,2-c]pyridin-6-yl-3H-quinazolin-4-one] | ≤ 100 nM | 245 to 250 °C
COCCN(C)Cc1cc(C)c2nc(-c3cc4sccc4cn3)[nH]c(=O)c2c1.Cl [Compound 151, 6-(((2-Methoxyethyl)(methyl)amino)methyl)-8-methyl-2-(thieno[3,2-c]pyridin-6-yl)quinazolin-4(3H)-one hydrochloride] | 100 to 1000 nM | 205 to 215 °C
Cc1cc(CN2CCC3(CC2)COC3)cc2c(=O)[nH]c(-c3cc4sccc4cn3)nc12 [Compound 155, 8-Methyl-6-(2-oxa-7-azaspiro[3.5]nonan-7-ylmethyl)-2-thieno[3,2-c]pyridin-6-yl-3H-quinazolin-4-one] | ≤ 100 nM | > 250 °C
COc1cc(CCN2CCOCC2)cc2c(=O)[nH]c(-c3cc(C(F)(F)F)ccn3)nc12.Cl [Compound 158, 8-Methoxy-6-(2-morpholinoethyl)-2-(4-(trifluoromethyl)pyridin-2-yl)quinazolin-4(3H)-one hydrochloride] | 1000 to 10000 nM | > 250 °C
Cl.O=c1[nH]c(-c2cc(C(F)(F)F)ccn2)nc2c(Br)cc(CCN3CCOCC3)cc12 [Compound 159, 8-Bromo-6-(2-morpholinoethyl)-2-(4-(trifluoromethyl)pyridin-2-yl)quinazolin-4(3H)-one hydrochloride] | ≤ 100 nM | > 250 °C
Cc1cc(CCN2CCOC(C)(C)C2)cc2c(=O)[nH]c(-c3cc(C(F)(F)F)ccn3)nc12.Cl [Compound 160, 6-(2-(2,2-dimethylmorpholino)ethyl)-8-methyl-2-(4-(trifluoromethyl)pyridin-2-yl)quinazolin-4(3H)-one hydrochloride] | ≤ 100 nM | 106 to 116 °C
Cc1cc(CN2CCN(C)C(=O)C2)cc2c(=O)[nH]c(-c3cc(C(F)(F)F)ccn3)nc12.Cl [Compound 161, 8-Methyl-6-((4-methyl-3-oxopiperazin-1-yl)methyl)-2-(4-(trifluoromethyl)pyridin-2-yl)quinazolin-4(3H)-one hydrochloride] | 100 to 1000 nM | > 250 °C
Cc1cc(CCN2CC3CCC(C2)O3)cc2c(=O)[nH]c(-c3cc(C(F)(F)F)ccn3)nc12.Cl [Compound 162, 6-(2-(8-Oxa-3-azabicyclo[3.2.1]octan-3-yl)ethyl)-8-methyl-2-(4-(trifluoromethyl)pyridin-2-yl)quinazolin-4(3H)-one hydrochloride] | ≤ 100 nM | 160 to 170 °C
Cc1cc(CCN2C3CCC2COC3)cc2c(=O)[nH]c(-c3cc(C(F)(F)F)ccn3)nc12.Cl [Compound 163, 6-(2-(3-oxa-8-azabicyclo[3.2.1]octan-8-yl)ethyl)-8-methyl-2-(4-(trifluoromethyl)pyridin-2-yl)quinazolin-4(3H)-one hydrochloride] | ≤ 100 nM | 200 to 250 °C
Cc1cc(CCN2CCC(O)CC2)cc2c(=O)[nH]c(-c3cc(C(F)(F)F)ccn3)nc12.Cl [Compound 164, 6-(2-(4-hydroxypiperidin-1-yl)ethyl)-8-methyl-2-(4-(trifluoromethyl)pyridin-2-yl)quinazolin-4(3H)-one hydrochloride] | 100 to 1000 nM | 115 to 125 °C
